The assay deals with T1, DLL3 (Homo sapiens, UniProt Q9NYJ7).
T1 sequence (Q9NYJ7 27-618): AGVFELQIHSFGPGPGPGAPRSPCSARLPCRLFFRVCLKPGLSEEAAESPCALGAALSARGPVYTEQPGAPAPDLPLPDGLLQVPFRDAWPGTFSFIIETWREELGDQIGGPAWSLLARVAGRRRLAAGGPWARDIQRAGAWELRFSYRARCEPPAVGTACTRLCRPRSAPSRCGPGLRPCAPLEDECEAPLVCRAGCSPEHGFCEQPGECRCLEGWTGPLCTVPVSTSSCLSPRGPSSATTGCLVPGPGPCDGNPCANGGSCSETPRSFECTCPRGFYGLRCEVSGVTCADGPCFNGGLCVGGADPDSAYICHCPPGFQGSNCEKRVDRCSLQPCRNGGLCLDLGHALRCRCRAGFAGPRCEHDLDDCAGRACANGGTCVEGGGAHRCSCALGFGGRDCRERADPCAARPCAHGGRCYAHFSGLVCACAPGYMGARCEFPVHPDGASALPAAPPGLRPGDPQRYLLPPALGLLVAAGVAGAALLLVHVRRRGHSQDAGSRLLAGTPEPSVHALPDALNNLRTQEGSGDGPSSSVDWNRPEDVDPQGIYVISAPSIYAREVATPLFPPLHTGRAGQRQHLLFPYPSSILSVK
Kind of assay: SPR KD, biotinylated human DLL3 on streptavidin chip (Table 8). The arrangement: biotin (biotinylated). The conditions noted are these: biotinylated human DLL3 on streptavidin sensor chip, 25° C., 1:1 binding model; read-out: SPR KD. The source says:
Biotinylated target ligand human DLL3 was immobilized on a streptavidin sensor chip. A reference surface was set up for nonspecific binding and refractive index changes. […] Sensorgram curves were fitted with 1:1 binding model, and affinity and kinetic parameters were obtained using Biacore Insight evaluation 4.0. software.

*1 amine or outer side, *2 acyl side, *3 side chain or, on linkers, in order; H or OH if unused. Where a SMILES comes first, the peptide text is derived from it. Bridges are numbered along the chain shown (N, C = ends). [ ]: non-standard residue; d: D form. The star is where a group is joined. X9 = CSCC[C@H](NC(=O)c1ccc(CNC(=O)CN2CCN(CC(=O)O)CCN(CC(=O)O)CCN(CC(=O)O)CC2)cc1)C(=O)N[C@H](C(=O)N[C@@H](CCCCN*)C(=O)O)C(C)C; X7 = O=C(O)CN1CCN(CC(=O)O)CCN(CC(=O)N[C@H]2CC[C@H](CC(=O)*)CC2)CCN(CC(=O)O)CC1; Ala(piperidin-4-yl) = O=C([C@H](CC1CCN([*:3])CC1)N[*:1])[*:2]; Ala(morpholin-4-yl) = N[C@@H](CN1CCOCC1)C(=O)O; NMeW = CN[C@@H](Cc1c[nH]c2ccccc12)C(=O)O; 2Nal = N[C@@H](Cc1ccc2ccccc2c1)C(=O)O; Gly(4-THP) = N[C@H](C(=O)O)C1CCOCC1; NMeT = CN[C@H](C(=O)O)[C@@H](C)O; Cha = N[C@@H](CC1CCCCC1)C(=O)O; NMeN = CN[C@@H](CC(N)=O)C(=O)O; Cba = N[C@@H](CC1CCC1)C(=O)O; Chg = N[C@H](C(=O)O)C1CCCCC1; Tle = CC(C)(C)[C@H](N)C(=O)O; Nle = CCCC[C@H](N)C(=O)O; CH2 = C([*:1])[*:2]

The term Kd denotes a measure of binding affinity in units of concentration.

For the compound `CC(=O)N[C@@H](Cc1c[nH]c2ccccc12)C(=O)N[C@H](C(=O)N[C@H](C(=O)N[C@H]1CSSC[C@@H](C(=O)N[C@@H](Cc2c[nH]c3ccccc23)C(=O)N2CCC[C@H]2C(N)=O)NC(=O)[C@H](CC(=O)O)NC(=O)[C@H](Cc2cnc[nH]2)NC(=O)[C@H](Cc2c[nH]c3ccccc23)NC(=O)[C@H](CC(N)=O)NC(=O)[C@H](CC(N)=O)NC1=O)C1CCOCC1)[C@@H](C)O` [compound 338, Ac-W-T-(THPG)-C(3)-N-N-W-H-D-C(3)-W-P-CONH2] (Ac-WT[Gly(4-THP)]CNNWHDCWP-NH2; disulfide 4-10), the Kd lay in the range of 1 to 10 nM.

Consider `CCCC[C@H](NC(=O)[C@@H](NC(=O)[C@H](Cc1c[nH]c2ccccc12)NC(C)=O)[C@@H](C)O)C(=O)N[C@H]1CSSC[C@@H](C(=O)N[C@@H](Cc2c[nH]c3ccccc23)C(=O)N2CCC[C@H]2C(N)=O)NC(=O)[C@H](CC(=O)O)NC(=O)[C@H](Cc2cnc[nH]2)NC(=O)[C@H](Cc2c[nH]c3ccccc23)NC(=O)[C@H](CC(N)=O)NC(=O)[C@H](CC(N)=O)NC1=O` [compound 339, Ac-W-T-(Nle)-C(3)-N-N-W-H-D-C(3)-W-P-CONH2] (Ac-WT[Nle]CNNWHDCWP-NH2; disulfide 4-10), for which the Kd was 1 to 10 nM.

With `CC(=O)N[C@@H](Cc1c[nH]c2ccccc12)C(=O)N[C@H](C(=O)N[C@@H](CC1CCCCC1)C(=O)N[C@H]1CSSC[C@@H](C(=O)N[C@@H](Cc2c[nH]c3ccccc23)C(=O)N2CCC[C@H]2C(N)=O)NC(=O)[C@H](CC(=O)O)NC(=O)[C@H](Cc2cnc[nH]2)NC(=O)[C@H](Cc2c[nH]c3ccccc23)NC(=O)[C@H](CC(N)=O)NC(=O)[C@H](CC(N)=O)NC1=O)[C@@H](C)O` [compound 340, Ac-W-T-(CHA)-C(3)-N-N-W-H-D-C(3)-W-P-CONH2] (Ac-WT[Cha]CNNWHDCWP-NH2; disulfide 4-10), the Kd is 1 to 10 nM.

With `CC(=O)N[C@@H](Cc1c[nH]c2ccccc12)C(=O)N[C@H](C(=O)N[C@@H](CC1CCC1)C(=O)N[C@H]1CSSC[C@@H](C(=O)N[C@@H](Cc2c[nH]c3ccccc23)C(=O)N2CCC[C@H]2C(N)=O)NC(=O)[C@H](CC(=O)O)NC(=O)[C@H](Cc2cnc[nH]2)NC(=O)[C@H](Cc2c[nH]c3ccccc23)NC(=O)[C@H](CC(N)=O)NC(=O)[C@H](CC(N)=O)NC1=O)[C@@H](C)O` [compound 341, Ac-W-T-(CBA)-C(3)-N-N-W-H-D-C(3)-W-P-CONH2] (Ac-WT[Cba]CNNWHDCWP-NH2; disulfide 4-10), the Kd was in the range of 1 to 10 nM.

In the case of `CC[C@H](C)[C@H](NC(=O)[C@@H](NC(=O)[C@H](Cc1c[nH]c2ccccc12)NC(C)=O)[C@@H](C)O)C(=O)N[C@H]1CSCSC[C@@H](C(=O)N[C@@H](Cc2c[nH]c3ccccc23)C(=O)N2CCC[C@H]2C(N)=O)NC(=O)[C@H](CC(=O)O)NC(=O)[C@H](Cc2cnc[nH]2)NC(=O)[C@H](Cc2c[nH]c3ccccc23)NC(=O)[C@H](CC(N)=O)NC(=O)[C@H](CC(N)=O)NC1=O` [compound 343] (Ac-WTICNNWHDCWP-NH2; linker 4-10 via CH2), the Kd was 10 to 100 nM.

As to `CSCC[C@H](NC(=O)c1ccc(CNC(=O)CN2CCN(CC(=O)O)CCN(CC(=O)O)CCN(CC(=O)O)CC2)cc1)C(=O)N[C@H](C(=O)N[C@@H](CCCCNC(=O)CC[C@@H]1NC(=O)[C@H](Cc2ccc3ccccc3c2)NC(=O)[C@H](CC(N)=O)NC(=O)[C@H](CC2CCNCC2)NC(=O)[C@@H](NC(=O)[C@@H](NC(=O)[C@@H](NC(=O)[C@H](Cc2c[nH]c3ccccc23)NC(C)=O)[C@@H](C)O)C(C)(C)C)CSSC[C@@H](C(=O)N[C@@H](Cc2c[nH]c3ccccc23)C(=O)N2CCC[C@H]2C(N)=O)NC(=O)[C@H](CC(=O)O)NC1=O)C(=O)O)C(C)C` [compound 377] (Ac-WT[Tle]C[Ala(piperidin-4-yl)]N[2Nal]E(X9)DCWP-NH2; disulfide 4-10), the Kd lay in the range of 1 to 10 nM.

`CSCC[C@H](NC(=O)c1ccc(CNC(=O)CN2CCN(CC(=O)O)CCN(CC(=O)O)CCN(CC(=O)O)CC2)cc1)C(=O)N[C@H](C(=O)N[C@@H](CCCCNC(=O)CC[C@@H]1NC(=O)[C@H](Cc2ccc3ccccc3c2)NC(=O)[C@H](CC(N)=O)NC(=O)[C@H](CC2CCNCC2)NC(=O)[C@@H](NC(=O)[C@@H](NC(=O)[C@@H](NC(=O)[C@H](Cc2c[nH]c3ccccc23)NC(C)=O)[C@@H](C)O)C2CCOCC2)CSSC[C@@H](C(=O)N[C@@H](Cc2c[nH]c3ccccc23)C(=O)N2CCC[C@H]2C(N)=O)NC(=O)[C@H](CC(=O)O)NC1=O)C(=O)O)C(C)C` [compound 378, Ac-W-T-(THPG)-C(3)-[3-(4-piperidinyl)-Ala]-N-(2Nal)-[Glu(gLys(OH)-Val-Met-AmBz-DOTA)]-D-C(3)-W-P-CONH2] (Ac-WT[Gly(4-THP)]C[Ala(piperidin-4-yl)]N[2Nal]E(X9)DCWP-NH2; disulfide 4-10): the Kd lay in the range of 1 to 10 nM.

Take `CC(=O)N[C@@H](Cc1c[nH]c2ccccc12)C(=O)N[C@H](C(=O)N[C@H](C(=O)N[C@H]1CSSC[C@@H](C(=O)N[C@@H](Cc2c[nH]c3ccccc23)C(=O)N2CCC[C@H]2C(N)=O)NC(=O)[C@H](CC(=O)O)NC(=O)[C@H](CCCCNC(=O)C[C@H]2CC[C@H](NC(=O)CN3CCN(CC(=O)O)CCN(CC(=O)O)CCN(CC(=O)O)CC3)CC2)NC(=O)[C@H](Cc2ccc3ccccc3c2)NC(=O)[C@H](CC(N)=O)NC(=O)[C@H](CC2CCNCC2)NC1=O)C1CCCCC1)[C@@H](C)O` [compound 379, Ac-W-T-(Chg)-C(3)-[3-(4-piperidinyl)-Ala]-N-(2Nal)-Lys(Chx-DOTA)-D-C(3)-W-P-CONH2] (Ac-WT[Chg]C[Ala(piperidin-4-yl)]N[2Nal]K(X7)DCWP-NH2; disulfide 4-10): the Kd is < 1 nM.

In the case of `CC(=O)N[C@@H](Cc1c[nH]c2ccccc12)C(=O)N[C@H](C(=O)N[C@H](C(=O)N[C@H]1CSSC[C@@H](C(=O)N[C@@H](Cc2c[nH]c3ccccc23)C(=O)N2CCC[C@H]2C(N)=O)NC(=O)[C@H](CC(=O)O)NC(=O)[C@H](CCCCNC(=O)C[C@H]2CC[C@H](NC(=O)CN3CCN(CC(=O)O)CCN(CC(=O)O)CCN(CC(=O)O)CC3)CC2)NC(=O)[C@H](Cc2ccc3ccccc3c2)NC(=O)[C@H](CC(N)=O)NC(=O)[C@H](CN2CCOCC2)NC1=O)C1CCCCC1)[C@@H](C)O` [compound 380, Ac-W-T-(Chg)-C(3)-[3-(1-morpholinyl)-Ala]-N-(2Nal)-Lys(Chx-DOTA)-D-C(3)-W-P-CONH2] (Ac-WT[Chg]C[Ala(morpholin-4-yl)]N[2Nal]K(X7)DCWP-NH2; disulfide 4-10), the Kd was < 1 nM.

`CSCC[C@H](NC(=O)c1ccc(CNC(=O)CN2CCN(CC(=O)O)CCN(CC(=O)O)CCN(CC(=O)O)CC2)cc1)C(=O)N[C@H](C(=O)N[C@@H](CCCCNC(=O)CC[C@@H]1NC(=O)[C@H](Cc2ccc3ccccc3c2)NC(=O)[C@H](CC(N)=O)NC(=O)[C@H](CC2CCNCC2)NC(=O)[C@@H](NC(=O)[C@@H](NC(=O)[C@@H](NC(=O)[C@H](Cc2c[nH]c3ccccc23)NC(C)=O)[C@@H](C)O)C2CCCCC2)CSSC[C@@H](C(=O)N[C@@H](Cc2c[nH]c3ccccc23)C(=O)N2CCC[C@H]2C(N)=O)NC(=O)[C@H](CC(=O)O)NC1=O)C(=O)O)C(C)C` [compound 381, Ac-W-T-(Chg)-C(3)-[3-(4-piperidinyl)-Ala]-N-(2Nal)-[Glu(gLys(OH)-Val-Met-AmBz-DOTA)]-D-C(3)-W-P-CONH2] (Ac-WT[Chg]C[Ala(piperidin-4-yl)]N[2Nal]E(X9)DCWP-NH2; disulfide 4-10): the Kd was < 1 nM.

`CC[C@H](C)[C@H](NC(=O)[C@@H](NC(=O)[C@H](Cc1c[nH]c2ccccc12)N(C)C(C)=O)[C@@H](C)O)C(=O)N[C@H]1CSSC[C@@H](C(=O)N[C@@H](Cc2c[nH]c3ccccc23)C(=O)N2CCC[C@H]2C(=O)O)NC(=O)[C@H](CC(=O)O)NC(=O)[C@H](Cc2c[nH]cn2)NC(=O)[C@H](Cc2c[nH]c3ccccc23)NC(=O)[C@H](CC(N)=O)NC(=O)[C@H](CC(N)=O)NC1=O` [compound 382, Ac-(NmeW)-T-I-C(3)-N-N-W-H-D-C(3)-W-P-CONH2] (Ac-[NMeW]TICNNWHDCWP-OH; disulfide 4-10): the Kd lay in the range of 10 to 100 nM.

As to `CC[C@H](C)[C@H](NC(=O)[C@H]([C@@H](C)O)N(C)C(=O)[C@H](Cc1c[nH]c2ccccc12)NC(C)=O)C(=O)N[C@H]1CSSC[C@@H](C(=O)N[C@@H](Cc2c[nH]c3ccccc23)C(=O)N2CCC[C@H]2C(N)=O)NC(=O)[C@H](CC(=O)O)NC(=O)[C@H](Cc2cnc[nH]2)NC(=O)[C@H](Cc2c[nH]c3ccccc23)NC(=O)[C@H](CC(N)=O)NC(=O)[C@H](CC(N)=O)NC1=O` [compound 383, Ac-W-(NmeT)-I-C(3)-N-N-W-H-D-C(3)-W-P-CONH2] (Ac-W[NMeT]ICNNWHDCWP-NH2; disulfide 4-10), the Kd is 100 to 300 nM.

As to `CC[C@H](C)[C@H](NC(=O)[C@@H](NC(=O)[C@H](Cc1c[nH]c2ccccc12)NC(C)=O)[C@@H](C)O)C(=O)N[C@H]1CSSC[C@@H](C(=O)N[C@@H](Cc2c[nH]c3ccccc23)C(=O)N2CCC[C@H]2C(=O)O)NC(=O)[C@H](CC(=O)O)NC(=O)[C@H](Cc2c[nH]cn2)NC(=O)[C@H](Cc2c[nH]c3ccccc23)NC(=O)[C@H](CC(=O)O)NC(=O)[C@H](CC(N)=O)N(C)C1=O` [compound 384, Ac-W-T-I-C(3)-(NmeN)-N-W-H-D-C(3)-W-P-CONH2] (Ac-WTIC[NMeN]DWHDCWP-OH; disulfide 4-10), the equilibrium dissociation constant (Kd) fell in the range of 10 to 100 nM.

For the origin of these results see patent US20250049970A1, “DLL3 TARGETING PEPTIDES AND CONSTRUCTS THEREOF” (MARIANA ONCOLOGY INC., priority 2023, published 2025).
